Test results from patent US20180155757A1, “IDENTIFICATION OF BACTERIA THAT ARE RESISTANT TO CARBAPENEMS BY MEMBRANE IMPERVIOUSNESS” (BIOMÉRIEUX, priority 2015, published 2018).
Like-named read-outs stand apart in the source and are kept apart here.

Tests used:
Test in all cases: Etest MIC of indicator carbapenems on MH II agar without/with PMBN
Type in all cases: cell-based
[1] = tested on: K. pneumoniae 1204034
Method: (§1) The determinations of antibiotic MIC were carried out on solid culture media with the Etest® method. To do this, Etest® strips (bioMérieux, France) were used: • Etest® Imipenem IM 32, and • Etest® Ertapenem ETP 32, and also solid culture media, differing from one another by virtue of their non-inhibitory concentrations of PMBN.
(§2) These solid culture media are prepared in Petri dishes (0=145 mm; V=50 ml) on a base of MH II Agar (Becton Dickinson®, United States), more or less supplemented with PMBN. The PMBN concentrations range from 0 up to concentrations equivalent to one fifth of the MIC of PMBN (⅕ MICPMBN).
(§3) Using a swab and the Retro C80™ rota-plater (bioMérieux, France), the culture media were inoculated with the bacteria, originating from an inoculum of 0.5 McFarland, prepared in 0.85% NaCl solution from colonies subcultured the day before on MH II agar.
(§4) The various Etest® strips are then deposited on the surface of the culture media. After 16 to 20 hours of incubation at 35° C., the MICS were read.
(§5) To do this, imipenem and ertapenem were used as indicator carbapenems. Non-inhibitory concentrations of PMBN, equivalent to concentrations of one tenth ( 1/10), one eighth (⅛) and one fifth (⅕) of the MIC of PMBN, were applied.
(§6) In the light of the MICPMBN values previously identified, very predominantly much higher than 300 μg/ml, the following standard concentrations were retained and applied to the bacterial strains to be tested: 50, 100, 150, 200 and 300 μg/ml.
(§7) By way of indicator carbapenems according to the invention, in addition to imipenem (IM) and ertapenem (ETP), meropenem (MP) was also tested. Like the other two antibiotics, meropenem was used in the form of Etest® strips (Etest® Meropenem MP 32 from the company bioMérieux, France).
(§8) The methods used to prepare the new culture media and to carry out the antibiotic-sensitivity tests are identical to those described above.

[2] = tested on: E. cloacae 9402034
Method: as §1, §2, §3, §4, §5, §6, §7, §8

[3] = tested on: K. pneumoniae 1002015
Method: as §1, §2, §3, §4, §5, §6, §7, §8

[4] = tested on: E. aerogenes 9203076
Method: as §1, §2, §3, §4, §5, §6, §7, §8

[5] = tested on: E. aerogenes 1204048; details: in µg/mL
Method: as §1, §2, §3, §4, §5, §6, §7, §8

[6] = tested on: E. aerogenes 9306071; details: E. aerogenes 9306071 (membrane impermeability), Table 4a
Method: as §1, §2, §3, §4, §5, §6, §7, §8

C[C@@H](O)[C@H]1C(=O)N2C(C(=O)O)=C(SCCN=CN)C[C@H]12 [IM, imipenem]
MIC ([1]; K. pneumoniae 1204034 (membrane impermeability), [PMBN] 0, Table 4a): 3 mg/L | MIC ([1]; K. pneumoniae 1204034 (membrane impermeability), [PMBN] 100, Table 4a): 0.5 mg/L | MIC ([1]; K. pneumoniae 1204034 (membrane impermeability), [PMBN] 200, Table 4a): 0.38 mg/L | MIC ([1]; K. pneumoniae 1204034 (membrane impermeability), [PMBN] 300, Table 4a): 0.19 mg/L | MIC ([1]; K. pneumoniae 1204034, [PMBN] 0, Table 3): 2 mg/L | MIC ([1]; K. pneumoniae 1204034, [PMBN] MIC/5): 0.5 mg/L | MIC ([1]; K. pneumoniae 1204034, [PMBN] MIC/8): 0.5 mg/L | MIC ([1]; K. pneumoniae 1204034, [PMBN] MIC/10): 0.5 mg/L | MIC ([1]; Klebsiella pneumoniae, 1204034, K. pneumoniae 1204034 (porin−), [PMBN] 0, Table 4, read-out: MIC): 2 mg/L | MIC ([1]; Klebsiella pneumoniae, 1204034, K. pneumoniae 1204034 (porin−), [PMBN] 150 μg/ml, Table 4, read-out: MIC): 0.38 mg/L | MIC ([1]; Klebsiella pneumoniae, 1204034, K. pneumoniae 1204034 (porin−), [PMBN] 200 μg/ml, Table 4, read-out: MIC): 0.38 mg/L | MIC ([2]; E. cloacae 9402034 (membrane impermeability), [PMBN] 0, Table 4a): > 32 mg/L | MIC ([2]; E. cloacae 9402034 (membrane impermeability), [PMBN] 100, Table 4a): 8 mg/L | MIC ([2]; E. cloacae 9402034 (membrane impermeability), [PMBN] 200, Table 4a): 12 mg/L | MIC ([2]; E. cloacae 9402034 (membrane impermeability), [PMBN] 300, Table 4a): 12 mg/L | MIC ([2]; E. cloacae 9402034, [PMBN] 0, Table 3): 16 mg/L | MIC ([2]; E. cloacae 9402034, [PMBN] MIC/5): 8 mg/L | MIC ([2]; E. cloacae 9402034, [PMBN] MIC/8): 8 mg/L | MIC ([2]; E. cloacae 9402034, [PMBN] MIC/10): 8 mg/L | MIC ([3]; K. pneumoniae 1002015, [PMBN] 0, Table 3): 2 mg/L | MIC ([3]; K. pneumoniae 1002015, [PMBN] MIC/5): 0.25 mg/L | MIC ([3]; K. pneumoniae 1002015, [PMBN] MIC/8): 0.25 mg/L | MIC ([3]; K. pneumoniae 1002015, [PMBN] MIC/10): 0.5 mg/L | MIC ([3]; Klebsiella pneumoniae, 1002015, K. pneumoniae 1002015 (porin−), [PMBN] 0, Table 4, read-out: MIC): 0.5 mg/L | MIC ([3]; Klebsiella pneumoniae, 1002015, K. pneumoniae 1002015 (porin−), [PMBN] 150 μg/ml, Table 4, read-out: MIC): 0.38 mg/L | MIC ([3]; Klebsiella pneumoniae, 1002015, K. pneumoniae 1002015 (porin−), [PMBN] 200 μg/ml, Table 4, read-out: MIC): 0.25 mg/L | MIC ([4]; E. aerogenes 9203076 (membrane impermeability), [PMBN] 0, Table 4a, in µg/mL): 8 | MIC ([4]; E. aerogenes 9203076 (membrane impermeability), [PMBN] 100, Table 4a, in µg/mL): 16 | MIC ([4]; E. aerogenes 9203076 (membrane impermeability), [PMBN] 200, Table 4a, in µg/mL): 4 | MIC ([4]; E. aerogenes 9203076 (membrane impermeability), [PMBN] 300, Table 4a, in µg/mL): 4 | MIC ([4]; E. aerogenes 9203076, [PMBN] 0, Table 3, in µg/mL): 8 | MIC ([4]; E. aerogenes 9203076, [PMBN] MIC/5, in µg/mL): 2 | MIC ([4]; E. aerogenes 9203076, [PMBN] MIC/8, in µg/mL): 2 | MIC ([4]; E. aerogenes 9203076, [PMBN] MIC/10, in µg/mL): 2 | MIC ([4]; Klebsiella aerogenes, 9203076, E. aerogenes 9203076 (porin−), [PMBN] 0, Table 4, read-out: MIC): 6 mg/L | MIC ([4]; Klebsiella aerogenes, 9203076, E. aerogenes 9203076 (porin−), [PMBN] 150 μg/ml, Table 4, read-out: MIC): 3 mg/L | MIC ([4]; Klebsiella aerogenes, 9203076, E. aerogenes 9203076 (porin−), [PMBN] 200 μg/ml, Table 4, read-out: MIC): 3 mg/L | MIC ([5]; E. aerogenes 1204048 (membrane impermeability), [PMBN] 0, Table 4a): >32 | MIC ([5]; E. aerogenes 1204048 (membrane impermeability), [PMBN] 100, Table 4a): 12 | MIC ([5]; E. aerogenes 1204048 (membrane impermeability), [PMBN] 200, Table 4a): 6 | MIC ([5]; E. aerogenes 1204048 (membrane impermeability), [PMBN] 300, Table 4a): 3 | MIC ([5]; E. aerogenes 1204048, [PMBN] 0, Table 3): 16 | MIC ([5]; E. aerogenes 1204048, [PMBN] MIC/5): 0.5 | MIC ([5]; E. aerogenes 1204048, [PMBN] MIC/8): 1 | MIC ([5]; E. aerogenes 1204048, [PMBN] MIC/10): 2 | MIC ([6]; [PMBN] 0): 12 mg/L | MIC ([6]; [PMBN] 100): 6 mg/L
